The values below come from US9758520B2, “Substituted fused heterocycles as GPR119 modulators for the treatment of diabetes, obesity, dyslipidemia and related disorders” (SANOFI, priority 2014, dated 2017).

For orientation: EC50 means the concentration that produces a half-maximal response.

Structures are written as SMILES.

The target in the assay is T1, human GPR119 (Homo sapiens, UniProt Q8TDV5).
T1 construct: expressed in transfected cells
T1 sequence (Q8TDV5 1-335): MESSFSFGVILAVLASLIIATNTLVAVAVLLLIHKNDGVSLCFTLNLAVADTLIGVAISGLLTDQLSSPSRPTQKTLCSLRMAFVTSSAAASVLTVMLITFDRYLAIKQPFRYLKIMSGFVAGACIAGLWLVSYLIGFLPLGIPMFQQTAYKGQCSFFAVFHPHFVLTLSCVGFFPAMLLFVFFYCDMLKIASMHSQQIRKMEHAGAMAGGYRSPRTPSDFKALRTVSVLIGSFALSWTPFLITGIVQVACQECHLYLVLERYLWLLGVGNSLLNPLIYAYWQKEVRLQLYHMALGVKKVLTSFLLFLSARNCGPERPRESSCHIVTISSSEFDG
In words: Functional cellular assay measuring GPR119-mediated cAMP release (HTRF) in HEK-293 cells stably expressing recombinant GPR119. The assay is classed as cell-based. Conditions: cAMP response, cell line expressing human GPR119 (HEK-293), 30 minutes at room temperature. On the procedure: Functional Cellular Assays Measuring GPR119-Mediated cAMP Release
Compounds of the invention, which are agonists of GPR119, were characterized by functional assays measuring the cAMP response of HEK-293 cell lines stably expressing recombinant GPR119 from man, mouse or rat, or by using a hamster cell line HIT-T15 expressing GPR119 endogenously. The cAMP content was determined using a kit based on homogenous time-resolved fluorescence (HTRF) from Cisbio Corp. (cat. no. 62AM4PEC). For preparation, cells were split into T175 culture flasks and grown to near confluency in medium (DMEM/10% FCS for HEK-293 cells, and F-12K medium/10% horse serum/2.5% FCS for HIT-T15 cells, respectively). Medium was then removed and cells washed with PBS lacking calcium and magnesium ions, followed by proteinase treatment with accutase (Sigma-Aldrich, cat. no. A6964). Detached cells were washed and resuspended in assay buffer (1×HBSS; 20 mM HEPES, 0.1% BSA, 2 mM IBMX) and cellular density determined. They were then diluted to 400000 cells/mL and 25 μL-aliquots dispensed to the wells of 96-well plates. For measurement, 25 μL of test compound in assay buffer was added and incubated for 30 minutes at room temperature. After addition of HTRF reagents diluted in lysis buffer, the plates were incubated for 1 hour, followed by measuring the fluorescence ratio at 665 vs. 620 nm. Potency of the agonists was quantified by determining the concentrations that caused 50% of the maximal response/activation (EC50). See Table 3 for exemplary data obtained using the cell line expressing human GPR119.
A general note: Time-resolved FRET reads energy transfer from a long-lived donor to a nearby acceptor.

With `CN(C)C(=O)Cn1nc2ccc(N3CC[C@@H](Oc4ccc(OCC(F)(F)F)nc4)C3=O)cn2c1=O` [Example 1-30, N,N-dimethyl-2-[3-oxo-6-[(3R)-2-oxo-3-[[6-(2,2,2-trifluoroethoxy)-3-pyridyl]oxy]pyrrolidin-1-yl]-[1,2,4]triazolo[4,3-a]pyridin-2-yl]acetamide], the concentration for a half-maximal effect (EC50) was 0.203 µM.

As for `Cn1nc2c(F)cc(N3CC[C@@H](Oc4ccc(OCC5CC5)nc4)C3=O)cn2c1=O` [Example 1-27, 6-[(3R)-3-[[6-(cyclopropylmethoxy)-3-pyridyl]oxy]-2-oxo-pyrrolidin-1-yl]-8-fluoro-2-methyl-[1,2,4]triazolo[4,3-a]pyridin-3-one], the EC50 worked out at 1.87 µM. On to `O=C1[C@H](Oc2ccc(OCC3CC3)nc2)CCN1c1ccc2nc(C3CC3)nn2c1` [Example 1-01, (3R)-3-[[6-(Cyclopropylmethoxy)-3-pyridyl]oxy]-1-(2-cyclopropyl-[1,2,4]triazolo[1,5-a]pyridin-6-yl)pyrrolidin-2-one], for which the EC50 worked out at 11.3 µM. Take `O=C1[C@H](Oc2ccc(OCC3CC3)nc2)CCN1c1ccc2nccn2c1` [Example 1-03, (3R)-3-[[6-(cyclopropylmethoxy)-3-pyridyl]oxy]-1-imidazo[1,2-a]pyridin-6-yl-pyrrolidin-2-one]: the EC50 turned out to be 7.62 µM.

Regarding `O=C(O)Cn1nc2ccc(N3CC[C@@H](Oc4ccc(OCC5CC5)nc4)C3=O)cn2c1=O` [Example 1-24, 2-[6-[(3R)-3-[[6-(cyclopropylmethoxy)-3-pyridyl]oxy]-2-oxo-pyrrolidin-1-yl]-3-oxo-[1,2,4]triazolo[4,3-a]pyridin-2-yl]acetic acid], the EC50 turned out to be 6.17 µM. With `CS(=O)(=O)Cn1nc2ccc(N3CC[C@@H](Oc4ccc(C(=O)C5CC5)cc4)C3=O)cn2c1=O` [Example 1-32, 6-[(3R)-3-[4-(cyclopropanecarbonyl)phenoxy]-2-oxo-pyrrolidin-1-yl]-2-(methylsulfonylmethyl)-[1,2,4]triazolo[4,3-a]pyridin-3-one], the EC50 was determined as 0.196 µM.

Consider `CN(C)C(=O)Cn1nc2cc(N3CC[C@@H](Oc4ccc(OCC5CC5)nc4)C3=O)cc(F)c2n1` [Example 1-22, 2-[6-[(3R)-3-[[6-(cyclopropylmethoxy)-3-pyridyl]oxy]-2-oxo-pyrrolidin-1-yl]-4-fluorobenzotriazol-2-yl]-N,N-dimethyl-acetamide], for which the EC50 stood at 0.182 µM. Under `CN(C)C(=O)Cn1nc2ccc(N3CC[C@@H](Oc4ccc(OCC5CC5)nc4)C3=O)cc2n1` [Example 2-03, 2-[5-[(3R)-3-[[6-(cyclopropylmethoxy)-3-pyridyl]oxy]-2-oxo-pyrrolidin-1-yl]benzotriazol-2-yl]-N,N-dimethyl-acetamide] stands 0.127 µM; under `COC(=O)Cn1cc2ccc(N3CC[C@@H](Oc4ccc(OCC5CC5)nc4)C3=O)cc2n1` [Example 1-15, methyl 2-[6-[(3R)-3-[[6-(cyclopropylmethoxy)-3-pyridyl]oxy]-2-oxo-pyrrolidin-1-yl]indazol-2-yl]acetate], 0.924 µM; under `Cn1nc2ccc(N3CC[C@@H](Oc4ccc(OCC5CC5)nc4)C3=O)cn2c1=O` [Example 1-23, 6-[(3R)-3-[[6-(cyclopropylmethoxy)-3-pyridyl]oxy]-2-oxo-pyrrolidin-1-yl]-2-methyl-[1,2,4]triazolo[4,3-a]pyridin-3-one], 4.2 µM. Regarding `CN(C)C(=O)Cn1nc2c(F)cc(N3CC[C@@H](Oc4ccc(C(=O)CC5CC5)cc4)C3=O)cn2c1=O` [Example 1-13, 2-[6-[(3R)-3-[4-(2-cyclopropylacetyl)phenoxy]-2-oxo-pyrrolidin-1-yl]-8-fluoro-3-oxo-[1,2,4]triazolo[4,3-a]pyridin-2-yl]-N,N-dimethyl-acetamide], the EC50 was 0.179 µM. For the compound `CN(C)C(=O)Cn1nc2ccc(N3CC[C@@H](Oc4ccc(Oc5ccc(F)cc5)nc4)C3=O)cn2c1=O` [Example 1-11, 2-[6-[(3R)-3-[[6-(4-fluorophenoxy)-3-pyridyl]oxy]-2-oxo-pyrrolidin-1-yl]-3-oxo-[1,2,4]triazolo[4,3-a]pyridin-2-yl]-N,N-dimethyl-acetamide], the EC50 is 0.206 µM.

On to `CN(C)C(=O)Cn1nc2ccc(N3CC[C@@H](Oc4ccc(OCC5CC5)nc4)C3=O)cn2c1=O` [Example 1-09, 2-[6-[(3R)-3-[[6-(cyclopropylmethoxy)-3-pyridyl]oxy]-2-oxo-pyrrolidin-1-yl]-3-oxo-[1,2,4]triazolo[4,3-a]pyridin-2-yl]-N,N-dimethyl-acetamide], for which the EC50 is 0.191 µM.

Regarding `O=C(O)Cc1cn2cc(N3CC[C@@H](Oc4ccc(OCC5CC5)nc4)C3=O)ccc2n1` [Example 1-19, 2-[6-[(3R)-3-[[6-(cyclopropylmethoxy)-3-pyridyl]oxy]-2-oxo-pyrrolidin-1-yl]imidazo[1,2-a]pyridin-2-yl]acetic acid], the EC50 was greater than 100 µM.

On to `O=C(Cn1nc2c(F)cc(N3CC[C@@H](Oc4ccc(OCC5CC5)nc4)C3=O)cn2c1=O)NC1CC1` [Example 2-02, N-cyclopropyl-2-[6-[(3R)-3-[[6-(cyclopropylmethoxy)-3-pyridyl]oxy]-2-oxo-pyrrolidin-1-yl]-8-fluoro-3-oxo-[1,2,4]triazolo[4,3-a]pyridin-2-yl]acetamide], for which the EC50 was 0.123 µM. Regarding `COC(=O)Cn1nc2ccc(N3CC[C@@H](Oc4ccc(OCC5CC5)nc4)C3=O)cn2c1=O` [Example 1-26, methyl 2-[6-[(3R)-3-[[6-(cyclopropylmethoxy)-3-pyridyl]oxy]-2-oxo-pyrrolidin-1-yl]-3-oxo-[1,2,4]triazolo[4,3-a]pyridin-2-yl]acetate], the EC50 came to 0.113 µM. Under `CN(C)C(=O)Cn1cc2cc(N3CC[C@@H](Oc4ccc(OCC(F)(F)F)nc4)C3=O)ccc2n1` [Example 1-34, N,N-dimethyl-2-[5-[(3R)-2-oxo-3-[[6-(2,2,2-trifluoroethoxy)-3-pyridyl]oxy]pyrrolidin-1-yl]indazol-2-yl]acetamide] stands 0.103 µM; under `COC(=O)Cc1nc2ccc(N3CC[C@@H](Oc4ccc(OCC5CC5)nc4)C3=O)cn2n1` [Example 1-07, methyl 2-[6-[(3R)-3-[[6-(cyclopropylmethoxy)-3-pyridyl]oxy]-2-oxo-pyrrolidin-1-yl]-[1,2,4]triazolo[1,5-a]pyridin-2-yl]acetate], 1.58 µM; under `O=C1[C@H](Oc2ccc(Oc3ccc(F)cc3)nc2)CCN1c1cc(F)c2n[nH]c(=O)n2c1` [Example 1-10, 8-fluoro-6-[(3R)-3-[[6-(4-fluorophenoxy)-3-pyridyl]oxy]-2-oxo-pyrrolidin-1-yl]-2H-[1,2,4]triazolo[4,3-a]pyridin-3-one], 0.658 µM.

`COC(=O)Cn1nc2c(F)cc(N3CC[C@@H](Oc4ccc(OCC5CC5)nc4)C3=O)cn2c1=O` [Example 1-28, methyl 2-[6-[(3R)-3-[[6-(cyclopropylmethoxy)-3-pyridyl]oxy]-2-oxo-pyrrolidin-1-yl]-8-fluoro-3-oxo-[1,2,4]triazolo[4,3-a]pyridin-2-yl]acetate]: the EC50 is 0.07 µM. For the compound `Cn1nc2ccc(N3CC[C@@H](Oc4ccc(OCC5CC5)nc4)C3=O)cc2n1` [Example 1-21, (3R)-3-[[6-(cyclopropylmethoxy)-3-pyridyl]oxy]-1-(2-methylbenzotriazol-5-yl)pyrrolidin-2-one], the EC50 came out at 2.05 µM. As for `CN(C)C(=O)Cn1nc2ccc(N3CC[C@@H](Oc4ccc(C(=O)CC5CC5)cc4)C3=O)cn2c1=O` [Example 1-12, 2-[6-[(3R)-3-[4-(2-cyclopropylacetyl)phenoxy]-2-oxo-pyrrolidin-1-yl]-3-oxo-[1,2,4]triazolo[4,3-a]pyridin-2-yl]-N,N-dimethyl-acetamide], the EC50 amounted to 0.269 µM. With `CS(=O)(=O)Cn1nc2ccc(N3CC[C@@H](Oc4ccc(Oc5ccc(F)cc5)nc4)C3=O)cn2c1=O` [Example 1-31, 6-[(3R)-3-[[6-(4-fluorophenoxy)-3-pyridyl]oxy]-2-oxo-pyrrolidin-1-yl]-2-(methylsulfonylmethyl)-[1,2,4]triazolo[4,3-a]pyridin-3-one], the EC50 was determined as 0.365 µM. In the case of `O=C(O)Cc1nc2ccc(N3CC[C@@H](Oc4ccc(OCC5CC5)nc4)C3=O)cn2n1` [Example 1-06, 2-[6-[(3R)-3-[[6-(cyclopropylmethoxy)-3-pyridyl]oxy]-2-oxo-pyrrolidin-1-yl]-[1,2,4]triazolo[1,5-a]pyridin-2-yl]acetic acid], the concentration giving a half-maximal response (EC50) was determined as 17.3 µM. Regarding `O=C1[C@H](Oc2ccc(OCC3CC3)nc2)CCN1c1ccc2nncn2c1` [Example 1-05, (3R)-3-[[6-(cyclopropylmethoxy)-3-pyridyl]oxy]-1-([1,2,4]triazolo[4,3-a]pyridin-6-yl)pyrrolidin-2-one], the EC50 worked out at 7.99 µM.
